Measurements as given in patent publication US11071731B2, “Allosteric modulators of the mu opioid receptor” (Chiromics, LLC, priority 2017, dated 2021).

What was measured:
mu opioid receptor (MOR) [1] = biological target: T1, mu opioid receptor (MOR) (Homo sapiens, UniProt P35372); test: PathHunter β-arrestin recruitment assay, PAM mode with EC20 endomorphin-1; type: cell-based
How it was run: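 Enzyme fragment complementation read-out: β-gal ED fragment fused to receptor, EA fused to β-arrestin, recruitment restoring β-gal activity detected by chemiluminescence. EC50 and percent maximal response derived for each compound.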

mu opioid receptor (MOR) [2] = biological target: T1, mu opioid receptor (MOR); test: Hit Hunter cAMP signaling assay (adenylyl cyclase inhibition), PAM mode with EC20 endomorphin-1; type: cell-based
[3] = maximal response for β-arrestin recruitment
[4] = β-arrestin recruitment, read-out: β-arr. EC50
[5] = cAMP EC50, adenylyl cyclase inhibition
[6] = maximal response for adenylyl cyclase inhibition
[7] = maximal response, β-arrestin recruitment
[8] = maximal response, adenylyl cyclase inhibition
[9] = adenylyl cyclase inhibition, read-out: cAMP EC50

T1 sequence (P35372 whole entry, the tested form may be a part): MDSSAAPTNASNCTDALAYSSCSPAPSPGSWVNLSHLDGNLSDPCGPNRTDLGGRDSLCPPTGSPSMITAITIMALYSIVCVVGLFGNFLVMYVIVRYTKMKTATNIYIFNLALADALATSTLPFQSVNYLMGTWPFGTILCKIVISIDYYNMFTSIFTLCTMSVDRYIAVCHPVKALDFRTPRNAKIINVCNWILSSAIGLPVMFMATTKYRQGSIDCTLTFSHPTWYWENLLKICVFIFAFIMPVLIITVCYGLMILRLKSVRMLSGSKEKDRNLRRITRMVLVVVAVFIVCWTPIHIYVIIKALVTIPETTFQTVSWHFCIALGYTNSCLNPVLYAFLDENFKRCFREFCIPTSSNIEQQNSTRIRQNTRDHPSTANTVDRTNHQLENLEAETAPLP

Row | Compound | β-arr Max. Resp. (mu opioid receptor (MOR) [1]; [3]) | EC50 (mu opioid receptor (MOR) [1]; [4]) [µM] | EC50 (mu opioid receptor (MOR) [2]; [5]) [µM] | cAMP Max. Resp. (mu opioid receptor (MOR) [2]; [6]) | EC50 (mu opioid receptor (MOR) [2]; [9]) [µM] | further results
1 | CN(C)c1ncc(F)c(N2CCCCC2c2cccc(F)n2)n1 (stereo not drawn) [compound 242] | D (D represents a maximal response of < 40%) | > 2.1 | > 2.1 | D (D represents a maximal response of < 40%) | – | –
2 | CN(C)c1cccc(C2CCCCN2Cc2cc(Cl)ccc2F)n1 (stereo not drawn) [compound 149] | F (F represents a maximal response of > 60%) | > 2.1 | > 2.1 | E (E represents a maximal response of 40-60%) | – | –
3 | COc1ccc(C2CCCCN2Cc2cccc(Cl)c2F)cc1Br (stereo not drawn) [compound 245] | D (D represents a maximal response of < 40%) | > 2.1 | > 2.1 | D (D represents a maximal response of < 40%) | – | –
4 | COc1ccc(C2CCCCN2c2ncnc(Cl)c2F)cc1Br (stereo not drawn) [compound 228] | F (F represents a maximal response of > 60%) | > 2.1 | > 2.1 | F (F represents a maximal response of > 60%) | – | –
5 | COc1ccc(C2CCCCN2c2nc(Cl)ncc2F)cc1OC (stereo not drawn) [compound 294] | D (D represents a maximal response of < 40%) | > 2.1 | > 2.1 | F (F represents a maximal response of > 60%) | – | –
6 | Fc1ccc(C2CCCCN2c2ccnc(Cl)n2)cc1Cl (stereo not drawn) [compound 470] | – | > 2.1 | > 2.1 | – | – | β-arr Max. Resp. (mu opioid receptor (MOR) [1]; [7]): F (F represents a maximal response of > 60%); cAMP Max. Resp. (mu opioid receptor (MOR) [2]; [8]): E (E represents a maximal response of 40-60%)
7 | Fc1cnc(Cl)nc1N1CCC(F)(F)CC1c1cccc(C(F)(F)F)c1 (stereo not drawn) [compound 199] | F (F represents a maximal response of > 60%) | < 0.7 | 0.7 to 2.1 | E (E represents a maximal response of 40-60%) | – | –
8 | O=S(=O)(c1ccc(Cl)cc1)N1CCCCC1c1ccc(C(F)(F)F)cn1 (racemic) [compound 65] | F (F represents a maximal response of > 60%) | > 2.1 | – | E (E represents a maximal response of 40-60%) | > 2.1 | –
9 | COc1ccc(C2CCCCN2c2nc(Cl)ncc2OC)cc1Br (stereo not drawn) [compound 235] | F (F represents a maximal response of > 60%) | > 2.1 | > 2.1 | F (F represents a maximal response of > 60%) | – | –
10 | Cc1cnc(Cl)nc1N1CCCCC1c1cccc(F)n1 (stereo not drawn) [compound 267] | D (D represents a maximal response of < 40%) | > 2.1 | > 2.1 | E (E represents a maximal response of 40-60%) | – | –
11 | Fc1cnc(Cl)nc1N1CCCCC1c1ccc(Cl)c(C(F)(F)F)c1 (single isomer, unassigned) [compound 348] | D (D represents a maximal response of < 40%) | < 0.7 | – | D (D represents a maximal response of < 40%) | – | –
12 | FC(F)(F)c1cccc(C2CCCCN2Cc2cccc(Cl)n2)n1 (stereo not drawn) [compound 165] | F (F represents a maximal response of > 60%) | > 2.1 | 0.7 to 2.1 | F (F represents a maximal response of > 60%) | – | –
13 | Fc1c(Cl)ncnc1N1CCCCC1c1cccc(C(F)(F)F)c1 (stereo not drawn) [compound 351] | D (D represents a maximal response of < 40%) | < 0.7 | < 0.7 | D (D represents a maximal response of < 40%) | – | –
14 | O=S1(=O)CCN(c2nc(Cl)ncc2F)C(c2cc(F)cc(C(F)(F)F)c2)C1 (racemic) [Compound 303] | D (D represents a maximal response of < 40%) | > 2.1 | – | E (E represents a maximal response of 40-60%) | > 2.1 | –
15 | Fc1ccc(C2CCCCN2c2nc(Cl)ncc2F)cc1Cl (stereo not drawn) [compound 121] | F (F represents a maximal response of > 60%) | < 0.7 | < 0.7 | E (E represents a maximal response of 40-60%) | – | –
16 | Fc1cc(C2COCCN2c2nc(Cl)ncc2F)cc(C(F)(F)F)c1 (single isomer, unassigned) [Compound 347] | D (D represents a maximal response of < 40%) | < 0.7 | – | D (D represents a maximal response of < 40%) | < 0.7 | –
17 | Fc1cnc(Cl)nc1N1CC(F)CC1c1cccc(C(F)(F)F)n1 (stereo not drawn) [compound 481] | – | > 2.1 | – | – | > 2.1 | β-arr Max. Resp. (mu opioid receptor (MOR) [1]; [7]): D (D represents a maximal response of < 40%); cAMP Max. Resp. (mu opioid receptor (MOR) [2]; [8]): D (D represents a maximal response of < 40%)
18 | FC(F)(F)c1cccc(C2CCCCN2Cc2cc(Cl)ccn2)n1 (stereo not drawn) [compound 162] | F (F represents a maximal response of > 60%) | > 2.1 | > 2.1 | E (E represents a maximal response of 40-60%) | – | –

Row | Compound | β-arr Max. Resp. (mu opioid receptor (MOR) [1]; [3]) | EC50 (mu opioid receptor (MOR) [1]; [4]) [µM] | EC50 (mu opioid receptor (MOR) [2]; [5]) [µM] | cAMP Max. Resp. (mu opioid receptor (MOR) [2]; [6]) | EC50 (mu opioid receptor (MOR) [2]; [9]) [µM] | further results
19 | FC(F)(F)c1cccc(C2CCCCN2c2nccc(Cl)n2)c1 (stereo not drawn) [compound 258] | E (E represents a maximal response of 40-60%) | > 2.1 | > 2.1 | F (F represents a maximal response of > 60%) | – | –
20 | Fc1cnccc1C1CCCCN1c1nc(Cl)ncc1F (stereo not drawn) [compound 375] | D (D represents a maximal response of < 40%) | < 0.7 | < 0.7 | D (D represents a maximal response of < 40%) | – | –
21 | COc1ccc(C2CCCCN2S(=O)(=O)C2CC2)cc1Br (stereo not drawn) [compound 15] | E (E represents a maximal response of 40-60%) | > 2.1 | > 2.1 | E (E represents a maximal response of 40-60%) | – | –
22 | COc1cc(C2CCCCN2c2nc(Cl)ncc2F)ccn1 (stereo not drawn) [compound 275] | D (D represents a maximal response of < 40%) | > 2.1 | > 2.1 | D (D represents a maximal response of < 40%) | – | –
23 | O=S(=O)(c1cc(F)ccc1F)N1CCCCC1c1cccc(C(F)(F)F)c1 (stereo not drawn) [Compound 26] | F (F represents a maximal response of > 60%) | > 2.1 | – | D (D represents a maximal response of < 40%) | > 2.1 | –
24 | Fc1cc(C2CCCCCN2c2nc(Cl)ncc2F)cc(C(F)(F)F)c1 (stereo not drawn) [compound 252] | F (F represents a maximal response of > 60%) | > 2.1 | – | E (E represents a maximal response of 40-60%) | > 2.1 | –
25 | Oc1ncc(F)c(N2CCCCC2c2cccc(C(F)(F)F)c2)n1 (stereo not drawn) [compound 350] | D (D represents a maximal response of < 40%) | < 0.7 | – | D (D represents a maximal response of < 40%) | – | –
26 | Fc1cc(Cl)cc(C2CCCCN2c2nc(Cl)ncc2F)c1 (single isomer, unassigned) [compound 420] | – | < 0.7 | – | – | – | β-arr Max. Resp. (mu opioid receptor (MOR) [1]; [7]): D (D represents a maximal response of < 40%); cAMP Max. Resp. (mu opioid receptor (MOR) [2]; [8]): D (D represents a maximal response of < 40%)
27 | Fc1ccc(Cl)nc1N1CCCCC1c1cccc(C(F)(F)F)c1 (stereo not drawn) [compound 263] | F (F represents a maximal response of > 60%) | 0.7 to 2.1 | 0.7 to 2.1 | D (D represents a maximal response of < 40%) | – | –
28 | Fc1cnc(Cl)nc1N1CCCCC1c1cccc(Cl)n1 (stereo not drawn) [compound 276] | E (E represents a maximal response of 40-60%) | – | – | D (D represents a maximal response of < 40%) | – | EC50 (mu opioid receptor (MOR) [1]; β-arr. EC50, β-arrestin recruitment): > 2.1 µM; EC50 (mu opioid receptor (MOR) [2]): 0.7 to 2.1 µM
29 | COc1ccc(C2CC(C(F)(F)F)CN2S(=O)(=O)c2ccc(Cl)cc2)cc1Br (single isomer, unassigned) [Compound 120] | F (F represents a maximal response of > 60%) | > 2.1 | – | F (F represents a maximal response of > 60%) | > 2.1 | –
30 | COc1ncc(N2CCCCC2c2cccc(C(F)(F)F)c2)c(F)n1 (stereo not drawn) [compound 295] | D (D represents a maximal response of < 40%) | > 2.1 | – | D (D represents a maximal response of < 40%) | > 2.1 | –
31 | Fc1cnc(Cl)nc1N1CCCCC1c1ccc(C(F)(F)F)nc1 (stereo not drawn) [compound 413] | D (D represents a maximal response of < 40%) | < 0.7 | < 0.7 | D (D represents a maximal response of < 40%) | – | –
32 | O=S(=O)(c1ccc(Cl)cc1)N1CCCCC1c1cc(C(F)(F)F)ccn1 (racemic) [compound 79] | F (F represents a maximal response of > 60%) | > 2.1 | – | D (D represents a maximal response of < 40%) | > 2.1 | β-arrestin Max Response (mu opioid receptor (MOR) [1]; β-arrestin recruitment, activity switching by MOR PAMs): F (F represents a maximal response of >60%); EC50 (mu opioid receptor (MOR) [1]; β-arrestin recruitment, activity switching by MOR PAMs, read-out: β-arrestin EC50): > 2.1 µM; cAMP Max Resp. (mu opioid receptor (MOR) [2]; adenylyl cyclase inhibition, activity switching by MOR PAMs): D (D represents a maximal response of < 40%); EC50 (mu opioid receptor (MOR) [2]; adenylyl cyclase inhibition, activity switching by MOR PAMs, read-out: cAMP EC50): > 2.1 µM
33 | COc1ccc(C2COCCN2S(=O)(=O)c2ccc(Cl)cc2)cc1Br (racemic) [Compound 222] | F (F represents a maximal response of > 60%) | > 2.1 | – | D (D represents a maximal response of < 40%) | 0.7 to 2.1 | –
34 | COc1ccc(C2C(C)CCN2S(=O)(=O)c2ccc(Cl)cc2)cc1Br (mixture of isomers) [Compound 102] | F (F represents a maximal response of > 60%) | > 2.1 | – | E (E represents a maximal response of 40-60%) | 0.7 to 2.1 | –
35 | COc1ccc(C2CCCCN2S(=O)(=O)c2ccc(F)cc2)cc1Br (stereo not drawn) [compound 13] | F (F represents a maximal response of > 60%) | > 2.1 | – | F (F represents a maximal response of > 60%) | > 2.1 | –
